The values that follow come from PubChem BioAssay AID602308 (Southern Research Specialized Biocontainment Screening …, 2012).

The source made the active and inactive calls. How the calls were made is not given here.

One experiment addresses Flavivirus NS5 methyltransferase / guanylyltransferase (capping enzyme). Kind of experiment: flavivirus capping enzyme inhibitors, confirmation, biochemical (AID 602308). To be noted: Flavivirus NS5 capping enzyme biochemical inhibition assay.
As to `O=C(O)CSc1cc(NS(=O)(=O)c2cccc3cccnc23)c2ccccc2c1O`, the IC50 – broadly, the concentration at which inhibition is half-maximal – is 6.62 µM.

As to `Cc1cc(F)ccc1S(=O)(=O)Nc1cc(SCC(=O)O)c(O)c2ccccc12`, the IC50 was 5.66 µM.

For the compound `O=S(=O)(Nc1cc(Sc2ncn[nH]2)c(O)c2ccccc12)c1ccc(F)cc1`, the IC50 was 10.2 µM.

Turning to `O=S(=O)(Nc1cc(Sc2ccccc2)c(O)c2ccccc12)c1ccc(F)cc1`, the IC50 was 35.6 µM.

As to `O=C(O)CSc1cc(NS(=O)(=O)c2ccc(F)cc2)c2ccccc2c1O`, the half-inhibitory concentration (IC50) was 7.32 µM.

Regarding `O=[N+]([O-])c1cccc(S(=O)(=O)Nc2cc(Sc3nc4ccccc4s3)c(O)c3ccccc23)c1`, the IC50 is 34.3 µM.

In the case of `Cc1ccc(S(=O)(=O)Nc2cc(SCC(=O)O)c(O)c3ccccc23)cc1`, the IC50 was 6.24 µM.

With `Cn1c(=O)c2[nH]c(-c3ccc(Cl)cc3)c(O)c2n(C)c1=O`, the IC50 is 57.8 µM.

On to `Cc1ccc(S(=O)(=O)Nc2cc(Sc3nc(C)cc(C)n3)c(O)c3ccccc23)cc1`, for which the IC50 was 83.8 µM.

On to `O=C(O)CSc1cc(NS(=O)(=O)c2ccc(Br)cc2)c2ccccc2c1O`, for which the IC50 was 4.96 µM.

Consider `Cc1cc(C)c(S(=O)(=O)Nc2cc(SCC(=O)O)c(O)c3ccccc23)c(C)c1`, for which the IC50 is 6.95 µM.

Regarding `COc1ccc(OC)c(S(=O)(=O)Nc2cc(SCC(=O)O)c(O)c3ccccc23)c1`, the IC50 was 9.09 µM.

In the case of `Cn1c(=O)c2[nH]c(-c3ccccc3)c(O)c2n(C)c1=O`, the IC50 was 28.1 µM.

On to `O=S(=O)(Nc1cc(Cl)c(O)c2ccccc12)c1ccc(F)cc1`, for which the IC50 was 17.8 µM.

`O=S(=O)(Nc1cc(SCc2ccccc2)c(O)c2ccccc12)c1ccc(Cl)cc1`: the IC50 was 43.3 µM.

In the case of `O=[N+]([O-])c1cccc(S(=O)(=O)Nc2cc(SCc3ccccc3)c(O)c3ccccc23)c1`, the half-maximal inhibitory concentration (IC50) is 14.8 µM.

Consider `O=C(O)CSc1cc(NS(=O)(=O)c2cccc([N+](=O)[O-])c2)c2ccccc2c1O`, for which the IC50 is 3.83 µM.

In the case of `O=C(O)CSc1cc(NS(=O)(=O)c2ccc(Cl)cc2)c2ccccc2c1O`, the IC50 is 5.45 µM.

The same experiment, now with this note: Flavivirus NS5 capping enzyme biochemical inhibition assay; at 100 µM (top of the series).
Regarding `Clc1ccc2nc(-c3ccccc3)cn2c1`, the inhibition result was “inactive”.

Take `CN(C)C(=O)c1ccc2nc(-c3ccccc3)cn2c1`: the inhibition entry is “inactive”.

Turning to `Cc1ccc(-c2cn3nc(C)c(C)nc3n2)cc1`, the inhibition result is “inactive”.

As for `Cc1nc2nc(-c3ccc(Cl)cc3)cn2nc1C`, the inhibition result is “inactive”.

For `Cn1c(=O)c2cnc(-c3ccccc3)nc2n(C)c1=O`, the inhibition entry is “inactive”.

`Cn1c(=O)c2[nH]c(-c3ccccc3)nc2n(C)c1=O`: the inhibition result was “inactive”.

Turning to `Cn1c(=O)c2[nH]c(-c3cccc4ccccc34)c(O)c2n(C)c1=O`, the inhibition result was “inactive”.

`Cc1ccc2nc(-c3ccccc3)cn2c1`: the inhibition entry is “inactive”.

For `Cc1nc2nc(-c3ccccc3)cn2nc1C`, the inhibition entry was “inactive”.

Turning to `Clc1ccc2nc(-c3cccs3)cn2c1`, the inhibition entry is “inactive”.

`Cc1ccn2cc(-c3ccccc3)nc2c1`: the inhibition entry is “inactive”.

Consider `Cc1nc2nc(-c3ccc(F)cc3)cn2nc1C`, for which the inhibition entry was “inactive”.
